Data published in US20040014678A1, “Prevention of beta-amyloid neurotoxicity by blockade of the ubiquitin-proteasome proteolytoc pathway” (priority 2003, published 2004).
Entries after “also recorded” stand apart in the source; their conditions may differ. Residues, ends and D or L forms follow the SMILES beside them.

What was measured:
rat cortical neurons [1] = assay: cells; type: cell-based
Protocol: FIGS. 3A and 3B show inhibition of β-amyloid (β-am) neurotoxicity by lactacystin (lacta) and Leu-Ala. Cell viability is assessed using the MTT assay. The conversion of tetrazolium salts is measured using a spectrophotometer and expressed as absorbance in arbitrary units. […] Lacta inhibits the neurotoxic effect cause by β-am in a concentration-dependent manner (•[formula]•).
(§1) Hemispheres were separated, and meninges were carefully removed.
Neurons plated at a density of 0.4×10^6 in 48-multiwell plates were exposed for the appropriate times to the test agents. MTT reduction was used to measure mitochondrial activity as an index of cell viability. The reaction was started by adding 0.4 mg/ml MTT in a PBS solution to the neurons. After 16 h of incubation at 37° C., 100 μl of pure dimethyl sulfoxide is added to each well. After an additional 12 h of incubation, absorbance values at 570 nm were determined with an automatic microplate reader, using 630 nm as a reference wavelength. Experiments were done in 48-multiwell plates allowing eight samples for each experimental point. Experiments were repeated at least three times.

[2] = tested on: ubiquitination of neuronal proteins; assay: Western blot of ubiquitinated neuronal proteins; type: cell-based, rat; conditions: for ubiquitinated proteins, agent alone: 72 h
Protocol: Lactacystin alone (lane 3), by blocking proteasome activity, causes an accumulation of ubiquitinated protein, although to a lesser extent than β-amyloid.
as §1
Western blot analysis was performed as previously described (Favit et al., 1998) with the following modifications. Proteins were extracted from neuronal pellets in a PBS solution containing 1 mg/ml leupeptin, 1 mg/ml pepstatin, 1 mg/ml chymostatin, 1 mg/ml antipain, and 0.2 mM phenylmethylsulfonyl fluoride. (Vannucci et al. (1998)). The crude homogenate was balanced with sample buffer containing 0.5 M Tris-HCl (pH 6.8), 10% glycerol, 2% sodium dodecyl sulfate, and 0.5% 2-mercaptoethanol to a final volume of 20 μl with a total protein concentration of […]. Sodium dodecyl sulfate-polyacrylamide gel electrophoresis was carried out in a 4-20% acrylamide gradient gel 1.5 mm thick. (Novex, San Diego, Calif., U.S.A.). Twenty micrograms per lane of protein of the crude homogenate was electrophoresed and transferred overnight onto a nitrocellulose membrane (Schleicher & Schuell). The membrane was blocked in 1% bovine serum albumin in 95% Tris-buffered saline for 1 h. Immunodetection of ubiquitin was obtained by exposing the membrane to an anti-ubaiqtin polyclonal primary antibody at 1:1,000 dilution for 1 h. Blots were then incubated with an anti-mouse alkaline phosphatase-conjugated secondary antibody for 1 h. Finally, the nitrocellulose was stained with a solution containing 0.1 M Tris-HCl (pH 9.6), 0.001 M MgCl2, 1% nitro blue terrazolium (Pierce), and 1% 5-bromo-4chloro-3-indolyl phosphate toluidine salt (Pierce). All reactions were carried out at room temperature. At least three independent sets of experiments were conducted.
Blocking ubiquitination with Leu-Ala or inhibiting proteasome activity with lactacystin prevent β-amyloid-induced neurotoxicity. […] Therefore, the ability of β-amyloid to cause ubiquitination of neuronal proteins was tested. Neurons were incubated with β-amyloid for 72 h in the presence of 50 nM lactacystin or 2 mM Leu-Ala and harvested. […] As a consequence of this, the target proteins are not degraded by the proteasome.

rat cortical neurons [3] = assay: Morphologic analysis of β-amyloid-induced cortical neuron damage (phase-contrast); conditions: for neuronal viability, agent alone: without β-amyloid
Protocol: FIGS. 1A, 1B, 1C and 1D provide morphologic analysis of β-amyloid-induced cortical neuron damage shown in representative phase-contrast images of cortical neurons at 13 days in vitro. Cells are treated for 5 days with vehicle (FIG. 1A), 50 nM lactacystin (FIG. 1B), 20 μM β-amyloid (FIG. 1C), or 20 μM β-amyloid+50 nM lactacystin (FIG. 1D).
(§2) Neurons were prepared from 17-day-old rat fetuses, according to a previously published protocol (Hampson et al. (1998)). In brief, the fetuses were decapitated, the brains were dissected and placed in phosphate-buffered saline (PBS) containing 4.5 g/L glucose. Hemispheres were separated, and meninges were carefully removed. Cortical tissues were freed from subcortical structures and cut into small fragments. Tissues were incubated with papain activated with cysteine for 10 min at 37° C. Papain was neutralized with a solution of ovomucoid and bovine serum albumin. Finally, tissues were mechanically dissociated until a single-cell suspension was obtained. Cells were plated in poly-D-lysine-coated 3.5-cm-diameter Petri dishes, 48-multiwell plates, or tissue culture flasks.

rat cortical neurons [4] = tested on: rat cortical neurons
Protocol: Cells are treated with the agents indicated in the respective heading (e.g. LACTA for lactacystin) and then stained with fluorescein and propidium. […] Data are mean±SE (bars) values.
as §2
Viability of cortical neurons was assessed with a propidium iodide exclusion test and fluorescein diacetate incorporation assessment, according to a previously published protocol. (Favit et al. (1992)). Rat cortical neurons seeded on 3.5-cm-diameter dishes were treated, washed with PBS, and incubated with a PBS solution containing 36 μM fluroescein diacetate and 7 μM propidium iodide for 3 min at room temperature. Cell viability was assessed by counting 100 cells per microscope field (using a 20× lens) for the number of fluorescein-labeled neurons versus propidium-positive cells. Experiments were conducted in duplicate and repeated at least three times. Statistical validity was assessed by ANOVA followed by a post hoc test.

CC(C)C[C@H](NC(=O)[C@H](C)N)C(=O)O [Ala-Leu] (H-Ala-Leu-OH)
reduction of β-amyloid toxicity (rat cortical neurons [1]; reverse dipeptide, data not shown): does not cause any reduction of β-amyloid toxicity

CC(C)C[C@H](N)C(=O)N[C@@H](C)C(=O)O [Leu-Ala, leucine-alanine dipeptide] (H-Leu-Ala-OH)
cell damage caused by β-am (rat cortical neurons [1]; 2 mM Leu-Ala with β-am): clear reduction of the cell damage caused by β-am | ubiquitinated proteins, agent alone [2]: does not affect protein ubiquitination in control cells | β-amyloid-induced ubiquitination ([2]; β-amyloid 72 h with 2 mM Leu-Ala): markedly reduced; also recorded: completely prevented | neuronal viability, agent alone (rat cortical neurons [3]): did not affect neuronal viability

CC(=O)N[C@@H](CSC(=O)[C@]1([C@@H](O)C(C)C)NC(=O)[C@H](C)[C@@H]1O)C(=O)O [lactacystin]
cell damage caused by β-am (rat cortical neurons [1]; 50 nM lacta with β-am): clear reduction of the cell damage caused by β-am | EC50 (rat cortical neurons [1]; Rattus norvegicus, Cortical neurone, in presence of β-amyloid, read-out: apparent EC50 for blocking β-amyloid toxicity): 30 nM | prevention of toxic effect of β-amyloid at the highest concentration tested (rat cortical neurons [1]; highest concentration tested): almost entirely prevents the toxic effect of β-amyloid | concentration at which the protective effect is already statistically significant (rat cortical neurons [1]; in presence of β-amyloid): 25 nM | concentration at which the protective effect reaches an apparent plateau (rat cortical neurons [1]; in presence of β-amyloid): 500 nM | ubiquitinated proteins, agent alone [2]: increases the presence of ubiquitinated protein | β-amyloid-induced ubiquitination ([2]; β-amyloid 72 h with 50 nM lactacystin): not affected | β-amyloid-induced propidium staining (rat cortical neurons [4]; β-amyloid combined with 50 nM lactacystin): reversed to near control levels | β-amyloid-induced morphologic degeneration of neurons (rat cortical neurons [3]; 50 nM lactacystin with 20 μM β-amyloid, 5 days): prevented β-amyloid-induced morphologic degeneration of neurons | neuronal viability, agent alone (rat cortical neurons [3]): did not affect neuronal viability

β-Amyloid 1-40 [β-amyloid fragment 1-40]
viable cells (MTT) (rat cortical neurons [1]): greatly decreases viable cells | ubiquitinated proteins, agent alone [2]: marked increase of ubiquitination of multiple proteins | fluorescein sequestration (rat cortical neurons [4]): not able to sequester fluorescein | number of viable cells (cell counts) (rat cortical neurons [4]): significantly reduces the number of viable cells | propidium iodide staining (rat cortical neurons [4]): clear staining with propidium iodide
